Laboratory results from EP0403882A2, “Indole derivatives and processes for preparation thereof” (FUJISAWA PHARMACEUTICAL CO., LTD., priority 1989, dated 1990).

Legend:
Benzold-Jarisch reflex = test: Inhibition of Benzold-Jarisch reflex (bradycardic response to 2-methyl-5-hydroxytryptamine in anesthetized rats); assay type: in vivo, Male Sprague-Dawley rats; details: dose 3.2 μg/kg iv, given 5 minutes before 2-methyl-5-hydroxytryptamine (32 ug/kg, iv), urethane-anesthetized rats
Source text: (A) Inhibition of Benzold-Jarisch reflex
Male Sprague-Dawley rats weighing 260-350 g were anesthetized intraperitoneally with 1.25 g/kg urethane.
Blood pressure and heart rate were monitored continuously from the left common carotid artery with a pressure transducer. A right femoral vein was connulated for the intravenous injection (iv) of drugs. The trachea was also connulated to ease the respiration.
Rats were given a rapid bolus injection of 2-methyl-5-hydroxytryptamine (32 u.g/kg, iv) to establish the control bradycardic response. Once the heart rate returned to base line, the .rats were given the test compound (iv), followed by 5-minutes interval and another bolus injection of 2-methyl-5-hydroxytryptamine (32 ug/kg, iv).

[1] = tested on: Cisplatin-induced vomiting; test: Inhibition of Cisplatin-induced vomiting; assay type: in vivo, female beagles; details: dose 100 μg/kg intravenously twice, 10 minutes prior to and 90 minutes after Cisplatin (3.2 mg/kg, iv); observed up to 5 hours
Protocol: (B) Inhibition of Cisplatin-induced vomiting
Nonfasted female beagles weighing about 10 kg were administered test compound or saline intravenously twice 10 minutes prior to and 90 minutes after Cisplatin dosing (3.2 mg/kg, iv).
Cisplatin was dissolved in 0.9% warm saline with a final concentration of 3 mgiml and used immediately.

In the case of `Cc1cn(C(=O)CC2CC3CCC(C2)N3C)c2ccccc12.Cl` (centres unmarked) [Example 2, 3-methyl-1-[(8-methyl-8-azabicyclo[3.2.1]oct-3-yl)acetyl]indole hydrochloride], the “Inhibition (%)” value (Benzold-Jarisch reflex) was 52.9% and the “Inhibition (%)” value [1] was 95.2%.
